Source: US20250340590A1, “PEPTIDE HAVING ANTI-INFLAMMATORY ACTIVITY AND USE THEREOF” (CAREGEN CO., LTD., priority 2021, published 2025)

Tests used:
Cox2 [1] = assay: Cox2 protein level by Western blot in HaCaT cells induced with LPS, TGFβ and IL-23; assay type: cell-based, human; settings: IL-23 and LPS, peptide at 5 μM and 50 μM, 24 hours, compared to group not treated with the peptide
Protocol: (§1) In order to further confirm the anti-inflammatory effect of the peptide treatment of the present invention in addition to the results of Experimental Example 1, HaCaT cells were treated with Th17 (type 17), which is an inflammation-inducing substance, and the expression levels of inflammation-inducing markers iNos and Cox2 were confirmed. As the inflammation-inducing substances, the cells were treated with LPS, TGFβ, and IL-23, and since iNos is an enzyme involved in the production of nitric oxide (NO), which is an inflammation-related protein induced by LPS, etc., it is possible to confirm whether inflammation is inhibited by measuring the expression levels of iNos and Cox2.
(§2) HaCaT cells were dispensed into a 24-well plate at a concentration of 3× 10^5 cells/well and cultured until the next day. The medium was replaced with serum-free medium, and after 4 hours, the cells were treated with TGFβ, IL-23, and LPS, which are Th17 type inflammation-inducing cytokines, and then with the peptide of the present invention and cultured again for another 24 hours. […] In order to perform Western blotting, the amounts of iNos and Cox2 proteins were measured using an anti-iNos antibody and an anti-Cox2 antibody (Cell Signaling Technology, USA). […]

IL-1β = IL-1β secretion by ELISA in LPS-induced mouse splenocytes; assay type: cell-based; settings: LPS 2 μg/mL, peptide at 5 μM and 50 μM, 24 hours
Protocol: Inflammation was induced in mouse splenocytes, and the secretion amounts of inflammatory cytokines TNFα, IL-1β, and IFNγ were confirmed. In order to induce inflammation, the cells were treated with an inflammation-inducing antigen, LPS, and since TNFα corresponds to a signaling protein associated with inflammation, IL-1β corresponds to a cytokine that promotes inflammation, and IFNγ also corresponds to a cytokine that promotes inflammation, the degree of inflammation can be confirmed by measuring the secretion amounts of TNFα, IL-1B, and IFNγ.
Mouse splenocytes were dispensed into a 24-well plate at a concentration of 1×10^7 cells/well and cultured until the next day. The medium was replaced with serum-free medium, and after 4 hours, the cells were treated with LPS and the peptide of the present invention and then cultured again for another 24 hours. In order to induce inflammation, the cells were treated with LPS at 2 μg/mL, and the peptide at 5 μM and 50 μM, respectively. […]

iNos = iNos protein level by Western blot in HaCaT cells induced with LPS, TGFβ and IL-23; assay type: cell-based, human; settings: IL-23 and LPS, peptide at 5 μM and 50 μM, 24 hours, compared to group not treated with the peptide
Protocol: as §1, §2

Cox2 [2] = assay: Cox2 protein level by Western blot in TNFα-induced HaCaT cells; assay type: cell-based, human; settings: TNFα 20 nM, peptide at 5 μM and 50 μM, 24 hours, compared to group not treated with TNFα
Protocol: In order to confirm the anti-inflammatory effect of treatment with the peptides of the present invention having the amino acid sequence of SEQ ID NO: 1, inflammation was induced in HaCaT cells, which are human keratinocytes, and the expression level of Cox2 protein was confirmed. In order to induce inflammation, the cells were treated with TNFα, which is an inflammation-inducing cytokine, and since Cox2 is an enzyme involved in the synthesis of prostaglandins corresponding to an inflammation-related protein, it is possible to confirm whether inflammation is inhibited by measuring the expression level of Cox2.
HaCaT cells were dispensed into a 24-well plate at a concentration of 3× 10^5 cells/well and cultured until the next day. The medium was replaced with serum-free medium, and after 4 hours, the cells were treated with TNFα and the peptide of the present invention and cultured again for another 24 hours. In order to induce inflammation, the cells were treated with TNFα at 20 nM, and treated with the peptide at 5 μM and 50 μM, respectively. […] In order to perform Western blotting, the amount of Cox2 protein was measured using an anti-Cox2 antibody (Cell Signaling Technology, USA). […]

TWNS [peptide of the present invention]
decreased: expression level of Cox2 protein (Cox2 [1]) | secretion amount of IL-1β (IL-1β) | expression level of iNos protein (iNos) | expression level of Cox2 protein (Cox2 [2])
